{"source": "patent US20220107328A1", "about": "“METHODS OF TREATING LIVER DISEASES” (Camp4 Therapeutics Corporation, priority 2018, published 2022)", "key": {"[1]": {"tested_on": "phosphorylated NDRG1 (pNDRG1/NDRG1)", "assay": "Western blot of phosphorylated NDRG1 in human hepatocytes", "type": "cell-based", "conditions": "3 μM, mTORC2 pathway, time point not stated", "method": "(§1) Levels of phosphorylated S6, AKT, and NDRG1 proteins were determined as compared to total S6, AKT, and NDRG1 protein. PNPLA3 mRNA expression was quantified and normalized to housekeeping gene GUSB."}, "[2]": {"assay": "Serum insulin quantification in mice (ELISA)", "type": "in vivo, mouse", "method": "Mouse 7-8 week old C57BL/6J mice were divided into 9 groups. Each group had 8 male mice. All mice were given a high sucrose diet for 10 days (Diet no. 901683; 74% kCal from sucrose. […] Food was removed at the start of the light cycle, about 7 am, except on the last day, when food was left in the cage until termination. On day 7-10, mice were administered daily (QD) via oral gavage, candidate compounds at a volume of 10 mL/kg with the compound in vehicle solution (0.5% methylcellulose/0.2% tween20). Vehicle alone was administered to control group 1. OSI-027 was administered at 25 mg/kg, 10 mg/kg, 5 mg/kg, and 2 mg/kg to groups 2-5. […] The treatment was administered in the evening on Days 7 to 10 and in the morning on Day 11, starting at 5 am. On Day 11, mice were terminated 4 hours post last dose at 9 am, for a total of 5 doses of each candidate compound. Mice were weighed 2×/week until Day 11. Liver and blood samples were collected after mice were terminated. Liver samples were process for mRNA extraction as previously described. Blood samples were processed for serum collection. […] Serum insulin levels in mouse samples were quantified using an ELISA kit purchased from Crystal Chem (Catalog #90080), per the manufacturer's instructions."}, "[3]": {"tested_on": "phosphorylated AKT (pAKT/AKT)", "assay": "Western blot of phosphorylated AKT in human hepatocytes", "type": "cell-based", "conditions": "3 μM; for phosphorylated AKT (pAKT/AKT) over time (in words): 35 min to 20 hrs, relative to DMSO control; for pAKT (473)/AKT: human hepatocytes, mTORC2 pathway, time point not stated", "method": "as §1"}, "PCSK9 mRNA": {"tested_on": "PCSK9 mRNA", "assay": "qRT-PCR of PCSK9 mRNA in primary hepatocytes", "type": "cell-based, human", "conditions": "donor 4178, 3 μM, relative to GUSB"}, "COL1A1 mRNA": {"tested_on": "COL1A1 mRNA", "assay": "qRT-PCR of COL1A1 mRNA in human primary hepatic stellate cells", "type": "cell-based", "conditions": "3 μM, relative to GAPDH"}, "PNPLA3 mRNA": {"tested_on": "PNPLA3 mRNA", "assay": "qRT-PCR of PNPLA3 mRNA in human primary hepatic stellate cells", "type": "cell-based", "conditions": "for Relative PNPLA3 level vs Untreated (±Standard Deviation): normalized to GAPDH; for PNPLA3 expression in stellate cells from different donors (in words): donors I/I and M/M, eight concentrations"}, "[4]": {"tested_on": "mTOR signaling of phospho-4E-BP1", "conditions": "cited from earlier work"}, "[5]": {"tested_on": "triglyceride content in HepG2 cells", "assay": "AdipoRed staining and triglyceride quantification of lipid droplet fraction in HepG2 cells", "type": "cell-based", "conditions": "72 hours; for TG (nmol/ug protein) (±Standard Deviation): lipid droplet fraction", "method": "HepG2 cells were treated with OSI-027 as described in Example 1. DMSO was used as a control. After treatment, the cells were stained with the AdipoRedTM Assay Reagent (cat #PT-7009) according to the manufacturer's instructions. Parallel treatment samples were processed for triglyceride quantification. For triglyceride quantification, HepG2 cells were treated with OSI-027 for 72 hours. Cells were collected and the lipid droplet (LD) fraction of the cell lysate enriched using the lipid droplet isolation kit (Cell Biolabs Inc., #[…]) per the manufacturer's instructions. The triglyceride content of the LD-enriched fraction measured using a Triglyceride Quantification Kit (Biovision Inc., #K622) per manufacturer's protocol, with a fluorimetric read-out."}, "[6]": {"tested_on": "PNPLA3 mRNA in mouse liver", "assay": "High sucrose diet mice, liver PNPLA3 mRNA after five doses (Example 31)", "type": "in vivo", "method": "Mouse 7-8 week old C57BL/6J mice were divided into 9 groups. Each group had 8 male mice. All mice were given a high sucrose diet for 10 days (Diet no. 901683; 74% kCal from sucrose. MP Biomedicals, Santa Ana, Calif.) at the start of the dark cycle, about 7 pm. Food was removed at the start of the light cycle, about 7 am, except on the last day, when food was left in the cage until termination. On day 7-10, mice were administered daily (QD) via oral gavage, candidate compounds at a volume of 10 mL/kg with the compound in vehicle solution (0.5% methylcellulose/0.2% tween20). Vehicle alone was administered to control group 1. OSI-027 was administered at 25 mg/kg, 10 mg/kg, 5 mg/kg, and 2 mg/kg to groups 2-5. […] The treatment was administered in the evening on Days 7 to 10 and in the morning on Day 11, starting at 5 am. On Day 11, mice were terminated 4 hours post last dose at 9 am, for a total of 5 doses of each candidate compound. Mice were weighed 2×/week until Day 11. Liver and blood samples were collected after mice were terminated. Liver samples were process for mRNA extraction as previously described. Blood samples were processed for serum collection. The geometric mean for the mRNA analysis was calculated by averaging the PCR CTs from the housekeepering genes ACTB, GAPDH, GUSB, HPRT, and B2M from the same cDNA sample."}}}
{"smiles": "COc1cccc2cc(-c3nc([C@H]4CC[C@H](C(=O)O)CC4)n4ncnc(N)c34)[nH]c12", "note": "[OSI-027]", "values": [{"measurement": "p-NDRG1/NDRG1", "setting": "[1]", "result": 0.46}, {"measurement": "serum insulin (in words)", "setting": "[2]; 10 mg/kg, 5 mg/kg, and 2 mg/kg", "result": "no significant changes in serum glucose or serum insulin levels"}, {"measurement": "serum insulin (in words)", "setting": "[2]; 25 mg/kg", "result": "significant increased"}, {"measurement": "phosphorylated AKT (pAKT/AKT) over time (in words)", "setting": "[3]", "result": "decreased at 4.5 hours"}, {"measurement": "pAKT (473)/AKT", "setting": "[3]", "result": 0.06}, {"measurement": "Primary Hepatocytes 4178 PCSK9 (fold change in mRNA expression)", "setting": "PCSK9 mRNA", "result": 0.69}, {"measurement": "Primary Stellate cells COL1A1 (fold change in mRNA expression)", "setting": "COL1A1 mRNA", "result": 0.51}, {"measurement": "Relative PNPLA3 mRNA expression", "setting": "PNPLA3 mRNA; 0.04 uM, Table 36 (cell type not given)", "result": 1.071}, {"measurement": "Relative PNPLA3 mRNA expression", "setting": "PNPLA3 mRNA; 0.122 uM, Table 36", "result": 0.795}, {"measurement": "Relative PNPLA3 mRNA expression", "setting": "PNPLA3 mRNA; 0.37 uM, Table 36", "result": 0.427}, {"measurement": "Primary Stellate cells PNPLA3 (fold change in mRNA expression)", "setting": "PNPLA3 mRNA; 3 μM, relative to GAPDH", "result": 0.57}, {"measurement": "Relative PNPLA3 mRNA expression", "setting": "PNPLA3 mRNA; 3.3 uM, Table 36", "result": 0.262}, {"measurement": "Relative PNPLA3 level vs Untreated (±Standard Deviation)", "setting": "PNPLA3 mRNA; (I/I) homozygous human stellate cells, 0.00045 uM", "result": "1.25 ± 0.10"}, {"measurement": "Relative PNPLA3 level vs Untreated (±Standard Deviation)", "setting": "PNPLA3 mRNA; (I/I) homozygous human stellate cells, 0.012 uM", "result": "0.89 ± 0.05"}, {"measurement": "Relative PNPLA3 level vs Untreated (±Standard Deviation)", "setting": "PNPLA3 mRNA; (I/I) homozygous human stellate cells, 0.037 uM", "result": "0.97 ± 0.12"}, {"measurement": "Relative PNPLA3 level vs Untreated (±Standard Deviation)", "setting": "PNPLA3 mRNA; (I/I) homozygous human stellate cells, 0.33 uM", "result": "0.57 ± 0.05"}, {"measurement": "Relative PNPLA3 level vs Untreated (±Standard Deviation)", "setting": "PNPLA3 mRNA; (I/I) homozygous human stellate cells, 1 uM", "result": "0.62 ± 0.09"}, {"measurement": "Relative PNPLA3 level vs Untreated (±Standard Deviation)", "setting": "PNPLA3 mRNA; (M/M) homozygous human stellate cells, 0.00045 uM", "result": "0.96 ± 0.12"}, {"measurement": "Relative PNPLA3 level vs Untreated (±Standard Deviation)", "setting": "PNPLA3 mRNA; (M/M) homozygous human stellate cells, 0.012 uM", "result": "0.92 ± 0.12"}, {"measurement": "Relative PNPLA3 level vs Untreated (±Standard Deviation)", "setting": "PNPLA3 mRNA; (M/M) homozygous human stellate cells, 0.037 uM", "result": "1.08 ± 0.04"}, {"measurement": "Relative PNPLA3 level vs Untreated (±Standard Deviation)", "setting": "PNPLA3 mRNA; (M/M) homozygous human stellate cells, 0.33 uM", "result": "0.63 ± 0.03"}, {"measurement": "Relative PNPLA3 level vs Untreated (±Standard Deviation)", "setting": "PNPLA3 mRNA; (M/M) homozygous human stellate cells, 1 uM", "result": "0.60 ± 0.05"}, {"measurement": "EC50", "setting": "PNPLA3 mRNA; Homo sapiens, PNPLA3 dose-response, Stellate cell (M/M)", "result": 62, "unit": "nM"}, {"measurement": "PNPLA3 expression in stellate cells from different donors (in words)", "setting": "PNPLA3 mRNA", "result": "effectively decreased PNPLA3 expression in a dose-dependent manner"}, {"measurement": "IC50", "setting": "[4]", "result": 1000, "unit": "nM"}, {"measurement": "TG (nmol/ug protein) (±Standard Deviation)", "setting": "[5]; 0.33 μM", "result": "0.24 ± 0.02828", "unit": "nmol/ug protein"}, {"measurement": "TG (nmol/ug protein) (±Standard Deviation)", "setting": "[5]; 1 μM", "result": "0.235 ± 0.03535", "unit": "nmol/ug protein"}, {"measurement": "triglyceride content (in words)", "setting": "[5]", "result": "reduced triglyceride content in HepG2 cells"}, {"measurement": "relative PNPLA3 mRNA in mouse livers (in words)", "setting": "[6]; OSI-027 25, 10, 5, 2 mg/kg, PF-04691502 10, 5, 2, 1 mg/kg, five doses, 4 hours post last dose, p<0.00001 vs control", "result": "decreased PNPLA3 at each dose tested"}, {"measurement": "reduction of PNPLA3 expression in vivo", "setting": "[6]; three different concentrations (10 mg/kg, 5 mg/kg, 2 mg/kg)", "result": 50, "unit": "%"}]}
{"smiles": "COc1ccc(-c2cc3c(C)nc(N)nc3n([C@H]3CC[C@H](OCCO)CC3)c2=O)cn1", "note": "[PF-04691502]", "values": [{"measurement": "p-NDRG1/NDRG1", "setting": "[1]", "result": 0.46}, {"measurement": "serum insulin (in words)", "setting": "[2]; 1 mg/kg", "result": "moderate increases in serum insulin"}, {"measurement": "serum insulin (in words)", "setting": "[2]; 10 mg/kg, 5 mg/kg, and 2 mg/kg", "result": "significant serum glucose and serum insulin increases"}, {"measurement": "phosphorylated AKT (pAKT/AKT) over time (in words)", "setting": "[3]", "result": "decreased at 20 hours"}, {"measurement": "pAKT (473)/AKT", "setting": "[3]", "result": 0.06}, {"measurement": "mrna remaining at 1 µM", "setting": "PNPLA3 mRNA; Human Stellate, 1 uM, read-out: PNPLA3 mRNA remaining after treatment compared to untreated cells", "result": 20, "unit": "%"}, {"measurement": "mrna remaining at 10 µM", "setting": "PNPLA3 mRNA; Human Stellate, 10 uM, read-out: PNPLA3 mRNA remaining after treatment compared to untreated cells", "result": 35, "unit": "%"}, {"measurement": "PNPLA3 expression in stellate cells from different donors (in words)", "setting": "PNPLA3 mRNA", "result": "effectively decreased PNPLA3 expression in a dose-dependent manner"}, {"measurement": "decrease in PNPLA3", "setting": "[6]; lowest dose, 1 mg/kg", "result": 50, "unit": "%"}]}
